From patent US8597904B2, “Pharmaceutical compositions for the treatment of conditions responsive to proteasome inhibition” (priority 2007, dated 2013)

Tests used:
TH-MYCN transgenic mouse = test: tumor reduction in TH-MYCN mouse model of human neuroblastoma; assay type: in vivo; conditions: homozygous mice, i.p. and/or i.v., every 72 hours for 3 to 6 weeks, vs untreated mice
Excerpt: The TH-MYCN transgenic mouse is a well-established neuroblastoma mouse model (Hansfored, et al. 2004. PNAS 101(34):12664-12669; Weiss, et al. 2007. Cancer Res 67(19):9435-9442; Weiss, et al. 2000. Cancer Res 6″2483-2487, each of which is incorporated herein by reference in its entirety). The tumors are caused by targeted expression of MYCN to the neural crest under the control of the rat tyrosine hydroxylase promoter, where the mice develop a tumor phenotype that closely resembles the human disease. The tumors in this strain of mouse generally develop in the abdominal and thoracic areas. TH-MYCN breeder pairs are supplied as hemizygote (129×1/SvJ-Tg(TH-MYCN)41Waw) and a wild type mate (129×1/SvJ).
Test compounds are administered to homozygous mice at a dose that is developed based upon the results of the initial dose and toxicity study (Example 15). Two to four doses per compound are administered by i.p. and/or i.v. methods into homozygous mice when palpable tumors begin to form. Vehicle is delivered […] as a control. Further doses are administered thereafter every 72 hours for 3 to 6 weeks. Between eight to twelve mice are tested in the study for administration of each compound. […] At the conclusion of the study, the mice are sacrificed and tumor size and number of tumors are assessed.

[1] = system: NB and ovarian cancer cells; conditions: Coleman et al. 2006, cited from earlier work
[2] = molecular target: T1, human erythrocyte 20S proteasomes, chymotrypsin-like activity (Homo sapiens, UniProt P28074); assay type: biochemical; conditions: for inhibition of chymotrypsin-like activity: 37° C., 100 μM Suc-LLVY-AMC
T1 construct: which contains human erythrocyte 20S proteasomes; purchased BIOMOL International AK-740; host or cells: human erythrocytes
Description: A 100 μl reaction volume contained 2 μg/ml 20S proteasome, 100 μM substrate, and the desired concentrations of syringolin A in dilution buffer (50 mM Tris-HCl, pH 7.5, 25 mM KCl, 10 mM NaCl, 1 mM MgCl2). Epoximicin and MG132 (BIOMOL® International) were used as test inhibitors. The release of free AMC (7-amino-4-methylcoumarin) at 37° C. was monitored with an MWGt Sirius HT fluorescence microplate reader (BIO-TEK® Instruments) equipped with a 360 nm excitation and a 460 nm emission filter. Proteolytic activities were measured as the increase in relative fluorescence units (RFU) over time (FIG. 7A-C). […] The initial velocities (vi) were determined from the time derivative of these curves and plotted versus the corresponding inhibitor concentration ([I]). […] Using SigmaPlot, the data were fitted to the hyperbolic equation vi=c+[v0/(Ki′+[I])], where v0 is the velocity of the control. […] The rate of covalent inhibition (kassociation), which equals kobs/[I] was calculated over the range of inhibitor concentrations given in parentheses in FIG. 7D. Values in FIG. 7D represent means±standard deviation.
The fluorogenic substrates Suc-LLVY-AMC, Boc-LRR-AMC, and Z-LLE-AMC (BIOMOL® International) were used to monitor chymotrypsin-like, trypsin-like, and caspase-like activities, respectively. […] The release of free AMC (7-amino-4-methylcoumarin) at 37° C. was monitored with an MWGt Sirius HT fluorescence microplate reader (BIO-TEK® Instruments) equipped with a 360 nm excitation and a 460 nm emission filter.

SK-N-SH cells = conditions: neuroblastoma (NB) cells, Coleman et al. 2006; cited from earlier work
[3] = system: poly (ADP-ribose) polymerase (PARP); test: Western blot of PARP cleavage in SK-N-SH cells; assay type: cell-based, human
Description: The induction of an apoptotic response in cancer cells by the addition of syringolin A was verified by monitoring the cleavage of poly (ADP-ribose) polymerase (PARP), a common response during apoptosis. SK-N-SH cells were cultured in the presence or absence of 20 μM syringolin A for 0, 24 and 48 hours, and cell lysates were then generated as described in Example 4 and probed for the presence of PARP by Western blotting using rabbit polyclonal anti-PARP (#9542) (diluted 1:1000) and the HRP-linked anti-rabbit secondary antibody described in Example 4. The results were representative of four independent experiments. […] The treatment of cells for 48 hours further increased the levels of cleaved PARP, whereas noncleaved PARP disappeared. In a similar manner, syringolin A induced PARP cleavage in SKOV3 cells, but noncleaved PARP was still detected 48 hours after treatment (FIG. 5B).
The role of glidobactin A (GlbA) in apoptosis and its correlation with autophagy has not previously been examined. Therefore, in a series of experiments, cell lysates of SK-N-SH cells were treated with GlbA in the presence and absence of the autophagy inhibitor 3-methyladenine (3-MA) and probed for poly ADP-ribose polymerase (PARP). The cleavage of PARP produces a smaller 89 kDa fragment which is indicative of late apoptosis.

SMILES	size and number of tumors (TH-MYCN transgenic mouse)	IC50 ([1]; read-out: IC-50 (concentration at which the cell proliferation rate is reduced to 50%))	cell morphology ([1]; NB cells, 25 μM, 48 hours)	inhibition of chymotrypsin-like activity [2]	mode of proteasome inhibition (reaction velocity over time) ([2]; FIG. 7A)	reaction with Annexin V (SK-N-SH cells)	PARP cleavage ([3]; 20 μM, 24 and 48 hours)	PARP cleavage ([3]; Example 15, single agent)	GlbA-induced PARP cleavage in presence of 3-MA ([3]; GlbA with 3-MA)
CC(C)[C@H](NC(=O)N[C@H](C(=O)N[C@H]1/C=C/CCNC(=O)/C=C/[C@H](C(C)C)NC1=O)C(C)C)C(=O)O [syringolin A]	effective in reducing both the size and number of tumors	~25 µM	severe morphological changes	inhibited	irreversible proteasome inhibitor	strongly react with Annexin V	induces apoptosis-associated PARP cleavage	–	–
CCCCCCC/C=C/C=C/C(=O)N[C@H](C(=O)N[C@H]1C[C@@H](O)CCNC(=O)/C=C/[C@H](C)NC1=O)[C@@H](C)O [glidobactin A]	effective in reducing both the size and number of tumors	–	–	blocked the chymotrypsin-like activity irreversibly at low concentrations	–	–	–	PARP cleavage was observed	slightly reduced this effect
